Measured values published in US20080280890A1, “HYDROXYLAMINE COMPOUNDS AND METHODS OF THEIR USE” (priority 2007, published 2008).
Structures can show the parent of a compound that is named as a salt.

Columns and labels:
[1] = system: Human neuroblastoma SKN-SH cells, resistant to doxorubicin; experiment: Chemoresistance: cancer cell viability (MTT) in presence or absence of doxorubicin; assay type: cell-based; conditions: compound 50 ug/mL, MTT
Description: A method for evaluating a compound's propensity to overcome cancer cell chemoresistance is described in “Caspase Inhibition Switches Doxorubicin-Induced Apoptosis To Senescence”, Abdelhadi Rebbaa, Xin Zheng, Pauline M Chou and Bernard L Mirkin, Oncogene (2003) 22, 2805-2811. Resistant human cancer cells to doxorubicin were selected by stepwise exposure to drug concentrations ranging from 10^−9 M-10^−6 M over 3 months. They were then subjected to treatment with the doxorubicin alone or in combination with hydroxylamine compounds 1-12, 16, 20, and 21 (Table 4). The cells were incubated with the drugs for 72 hours, and cell viability was measured by the MTT assay. Additionally, molecular pathways that might be associated with increased chemo-responsiveness with these compounds were investigated. p Cancer Cell Viability Data for certain hydroxylamines in the presence or absence of Doxorubicin is listed in Table 4.
A method for evaluating a compound's propensity to overcome cancer cell chemoresistance is described in “Caspase Inhibition Switches Doxorubicin-Induced Apoptosis To Senescence”, Abdelhadi Rebbaa, Xin Zheng, Pauline M Chou and Bernard L Mirkin, Oncogene (2003) 22, 2805-2811. Human neuroblastoma SKN-SH cells (ATCC Cat. No. HTB-11) were cultured in Dulbecco's Modified Eagles Medium (DMEM; Gibco, Grand Island, N.Y.) supplemented with 10% fetal bovine serum (FBS; Sigma-Aldrich, St. Louis, Mo.) at 37° C. in a 95% Air/5% CO2 atmosphere. Resistant human cancer cells to doxorubicin were selected by stepwise exposure to drug concentrations ranging from 10^−9M-10^−6M over 3 months. They were then subjected to treatment with the doxorubicin alone or in combination with hydroxylamine compounds. The cells were incubated with the drugs for 72 hours, and cell viability was measured by the MTT assay. This consists of adding 10 μl/well of MTT (5 mg/ml solution) and incubation for 4 h at 37° C. The precipitate formed is then solubilized by addition of 100 μl of HCL 0.5 N/Isopropanol and incubation for 15 hours at 37° C. The optical density is measured at 570 nm and cell survival is estimated by comparison to untreated cells. Each point represents 4 wells data represent average ± SE. Additionally, molecular pathways that might be associated with increased chemo-responsiveness with these compounds were investigated.
Cytotoxic activity of doxorubicin and hydroxylamine analogs were quantitatively determined by a colorimetric assay utilizing 3-(4,5-dimethyl-2-thiazolyl) 2,5-diphenyl tetrazolium bromide (MTT; Sigma-Aldrich, St. Louis, Mo.). Briefly, cells were seeded at 10^4 cells/well in 96-well plates and maintained in culture for 24 hours at 37° C. in DMEM supplemented with 10% FBS. Drugs were added to designated wells and cells were incubated for […], following which MTT (10 μL of 5 mg/ml solution) was added to each 100 μl well and incubated for 4 hours at 37° C. The cells were solubilized by incubation with 100 μl of HCl 0.5N in isopropanol for 15 hours at 37° C. The optical density of this solution was measured at 570 nm and the percentage of viable cells estimated by comparison with untreated control cells.

[2] = system: Angiogenesis in CAM model; experiment: Neovascularization on the CAM (chick chorioallantoic membrane model of angiogenesis); assay type: in vivo, chicken; conditions: for Percent inhibition of angiogenesis in CAM model at 30 ug: unit assumed
Procedure: In vivo neovascularization was examined by the method previously described by Auerbach et al. (J. Dev. Biol. 41:391-394 (1974)). Ten-day old chicken embryos were purchased from Spafas, Inc. (Preston, Conn.) and were incubated at 37° C. with 55% relative humidity. In the dark, with the aid of a candling lamp, a small hole was punctured in the shell concealing the air sac with a hypodermic needle. A second hole was punctured in the shell on the broadside of the egg directly over an […] portion of the embryonic membrane, as observed during candling. An artificial air sac was created beneath the second hole by applying gentle vacuum to the first hole using a small rubber squeeze bulb. The vacuum caused the chorioallantoic membrane (CAM) to separate from the shell.
A window, approximately 1.0 cm^2, was cut in the shell over the dropped CAM with the use of a small crafts grinding wheel (Dremel, Division of Emerson Electric Company Racine, Wis.). The window allowed direct access to the underlying CAM.
A pro-angiogenic agent was added to induce new blood vessel branches on the CAM of 10-day old embryos. Filter disks of #1 filter paper (Whatman International, United Kingdom) were punched using a small puncher and were soaked in 3 mg/mL cortisone acetate (Sigma, St. Louis, Mo.) in a solution (95% ethanol and water). The disks were subsequently air dried under sterile conditions. The disks were then suspended in PBS (Phosphate Buffered Saline) and placed on growing CAMs. Filters treated with TP-H (TEMPOL-H) or TEMPOL and/or H2O2 or TP-H and/or bFGF or VEGF were placed on the first day of the 3-day incubation.
For inducing angiogenesis, sterile filter disks were saturated with bFGF (1 μg/ml) (Life Technologies, Gaithersburg, Md.) or other pro-angiogenesis factors and control disks were saturated with PBS without Calcium and Magnesium. […]
Using sterile forceps one filter/CAM was placed from the window. The window was sealed with Highland brand transparent tape.
After 24-48 hr, 10-25 ul of test agent was injected intravenously or added topically into the CAM membrane. Eight-Ten eggs/treatment group were used.
CAM tissue directly beneath filter disk was harvested from embryos treated 48 hours prior with compound or control. Tissues were washed three times with PBS. Sections were placed in a 35-mm petri dish (Nalge Nunc, Rochester, N.Y.) and examined under a SV6 stereomicroscope (Karl Zeiss, Thornwood, N.Y.) at 50× magnification.
CAM sections from Petri dish were examined using SV6 stereomicroscope (Karl Zeiss) at 50× magnification. Digital images of CAM sections from Petri dish were collected using a 3-CCD color video camera system (Toshiba America, New York, N.Y.). These images were analyzed using Image-Pro Plus software (Media Cybernetics, Silver Spring, Md.).
The number of branch points in blood vessels within the circular region superimposed to the area of a filter disk was counted for each section. After incubation at 37° C. with 55% relative humidity for 3 days, the CAM tissue directly beneath each filter disk was resected from control and treated CAM samples. Tissues were washed three times with PBS. Sections were placed in a 35-mm Petri dish (Nalge Nunc; Rochester, N.Y.) and were examined under a SV6 stereomicroscope (Karl Zeiss; Thornwood, N.Y.) at 50× magnification. Digital images of CAM sections adjacent to filters were collected using a 3-CCD color video camera system (Toshiba America; New York, N.Y.) and analyzed with the Image-Pro Plus software (Media Cybernetics; Silver Spring, Md.).
The number of vessel branch points contained in a circular region equal to the area of a filter disk was counted for each section. Percent inhibition data are expressed as the quotient of the experimental value minus the negative control value divided by the difference between the positive control value and the negative control value. […]

Row | Compound | Mean OD (×10^−3), cancer cell viability ([1]; Dox. 10^−6 M present (+)) | Mean OD (×10^−3), cancer cell viability ([1]; Dox. absent (−)) | Percent inhibition of angiogenesis in CAM model at 30 ug ([2]; 30 ug) | inhibition in vivo at 0.3 mg ([2]; Gallus gallus, 300 ug) | CAM data % Inhibition ([2]; 300 ug) | inhibition in vivo at 0.03 mg ([2]; Gallus gallus, 30 ug)
1 | CC1(C)CC(Oc2nsnc2N2CCOCC2)C(C)(C)N1O.Cl (centres unmarked) [Compound 32, 4-(4-(1-hydroxy-2,2,5,5-tetramethylpyrrolidin-3-yloxy)-1,2,5-thiadiazol-3-yl)morpholine] | 231.50 ×10^−3 | 985.67 ×10^−3 | – | – | – | –
2 | CC1(C)CC(=CC(=O)N2CCN(c3ccccc3)CC2)CC(C)(C)N1O [Compound 56] | 308.75 ×10^−3 | 1153.00 ×10^−3 | 66.1% | – | – | –
3 | CC1(C)CC(NC(=O)CCCCC2CCSS2)CC(C)(C)N1O (centres unmarked) [Compound 49, 5-(1,2-dithialan-3-yl)-N-(1-hydroxy-2,2,6,6-tetramethylpiperidin-4-yl)pentanamide] | 195.00 ×10^−3 | 1330.25 ×10^−3 | – | – | – | –
4 | CC1(C)CC(CO)CC(C)(C)N1O.Cl [Compound 34, (1-hydroxy-2,2,6,6-tetramethylpiperidin-4-yl)methanol] | 302.75 ×10^−3 | 1168.25 ×10^−3 | – | – | – | –
5 | CC1(C)C=C(CC2CNCCO2)C(C)(C)N1O.Cl.Cl (centres unmarked) [Compound 36] | 297.00 ×10^−3 | 1110.75 ×10^−3 | – | – | – | –
6 | O=C1O[C@H]([C@@H](O)CO)C(O)=C1O [Vitamin C, reference compound] | – | – | – | 15 ± 7% | – | –
7 | COc1cc(COC2CC(C)(C)N(O)C(C)(C)C2)cc(OC)c1OC.Cl [Compound 48, 1-Hydroxyl-4-(3,4,5-trimethoxybenzyloxy)-2,2,6,6-tetramethylpiperidine] | 50.67 ×10^−3 | 1118.00 ×10^−3 | – | – | – | –
8 | CC1(C)CC(Oc2nsnc2N2CCN(c3ccccc3)CC2)CC(C)(C)N1O.Cl.Cl [Compound 53, 4-(4-phenylpiperazin-1-yl)-3-[(2,2,6,6-tetramethyl-1-hydroxypiperidinyl)-4-oxy]-1,2,5-thiadiazole] | 170.00 ×10^−3 | 1333.75 ×10^−3 | – | – | – | –
9 | CC1(C)CC(NC(=O)CCN2CCOCC2)CC(C)(C)N1O.Cl [Compound 26, N-(1-hydroxy-2,2,6,6-tetramethylpiperidin-4-yl)-3-morpholinopropanamide] | 261.50 ×10^−3 | 1056.33 ×10^−3 | 72% | – | – | –
10 | Vitamin E [reference compound] | – | – | – | – | 22 ± 6% | –
11 | COc1cc(C2=CC(C)(C)N(O)C(C)(C)C2)cc(OC)c1OC.Cl [Compound 50, 1-Hydroxy-2,3,6-trihydro-4-(3,4,5-trimethoxyphenyl)-2,2,6,6-tetramethylpiperidine] | 54.50 ×10^−3 | 1226.33 ×10^−3 | 92.3% | – | – | –
12 | CC1(C)C=C(CO)C(C)(C)N1O [Compound 8] | 197.25 ×10^−3 | 392.50 ×10^−3 | 88% | – | – | –
13 | CC(C)c1nsnc1OCC1=CC(C)(C)N(O)C1(C)C [Compound 51] | 71.00 ×10^−3 | 1208.25 ×10^−3 | 43% | – | – | –
14 | CN1CCN(c2nsnc2OC2CC(C)(C)N(O)C(C)(C)C2)CC1 [Compound 52] | 195.00 ×10^−3 | 1186.33 ×10^−3 | 68.3% | – | – | –
15 | 1-Hydroxy-4-(4-Flurophenyl)-2,2,6,6-tetramethylpiperidine [Compound 62] | 40.25 ×10^−3 | 184.75 ×10^−3 | 43.8% | – | – | –
16 | CC1(C)CC(Oc2nsnc2Cl)CC(C)(C)N1O.Cl [Compound 13, 4-(4-chloro-1,2,5-thiadiazol-3-yloxyl)-1-hydroxyl-2,2,6,6-tetramethylpiperidine] | – | – | 51.2% | – | – | –
17 | CC1(C)CC(=O)C(C)(C)N1O.Cl [Compound 37, 1-hydroxy-2,2,5,5-tetramethylpyrrolidin-3-one] | 366.25 ×10^−3 | 1329.75 ×10^−3 | – | – | – | –
18 | CC1(C)CC(O)CC(C)(C)N1O [TEMPOL-H HCl, 2,2,6,6-tetramethylpiperidine-1,4-diol, reference compound] | – | – | – | – | – | 43 ± 10%
19 | CC1(C)CC(NC(=O)C2CC2)C(C)(C)N1O.Cl (centres unmarked) [Compound 38, N-(1-hydroxy-2,2,5,5-tetramethylpyrrolidin-3-yl)cyclopropanecarboxamide] | 378.50 ×10^−3 | 1202.75 ×10^−3 | – | – | – | –
